The values below come from patent US9109045B2, “Mass producing growth factor using adipose derived adult stem cells” (PROSTEMICS CO., LTD., priority 2006, dated 2015).

Where “and” joins values, the source holds several entries; their conditions need not be identical. Identical values can stand only once. Like-named read-outs stand apart in the source and are kept apart here.

Data set [1] deals with keratinocytes. Nature of the data set: Defensive effect against exposure of keratinocytes to UV light (cell viability). It counts as cell-based. The settings on record: UV light 40 W double lamp 8 minutes, viability after 24 hours, 2.5 cc medium in 5 cc KGM or 2 uM retinol. The protocol: The defensive effect of growth factors secreted from adipose-derived stem cells against the exposure of keratinocytes UV light was tested in the following manner. Keratinocytes were dispensed into a 6-well plate at a suitable cell concentration in KGM (karatinocyte growth medium; Clonetics.) and incubated in a 5% carbon dioxide incubator at 37° C. To the medium, 2.5 cc of 100% ADSC 3-passage 3-day cultured medium was added to adjust the KGM to 5 cc. Also, 2 uM retinol was added to 5 cc of KGM. Also, as a negative control group, 5 cc of KGM alone was administered to keratinocytes. Each of the test samples was stabilized for 4 hours, such that the raw materials were sufficiently dispersed. After that, each of the test samples was irradiated with UV light using a 40 W double lamp for 8 minutes in an aseptic laboratory. After 24 hours, the UV defense function of the test sample was measured by determining the viability of the cells in comparison with the negative control group, which was untreated with the culture medium or retinol and irradiated with UV light for 8 minutes.

For data set [2], the system named is adipose-derived stem cells. Description: Growth factor secretion (ELISA) of adipose-derived stem cells under chemical stimulation with vitamins. Type of data set: cell-based, human. Conditions: for optimal concentration for synthesis of growth factors: added to serum-free culture medium of adipose-derived stem cells; for TGF β-1 expression / protein levels increased / VEGF expression / protein levels increased / bFGF expression / protein levels increased: chemical stimulation only, vitamin(s) at optimal concentration in serum-free medium, more than 48 hours, compared with control group. On the procedure:
In order to examine whether chemical stimulation using a vitamin promotes the synthesis and secretion of growth factors, in the present invention, adipose-derived stem cells were cultured in vitro using serum media and then using serum-free media as described above.
Preferably, after vitamin is added to the culture medium, the culture is incubated for more than 48 hours. When a mixture of vitamins is used, the optimal concentrations of vitamins are the same as above.
Specifically, 1 ml of the culture medium obtained by culturing adipose-derived stem cells to passage 3 in the conditions of Example 1-2 was centrifuged at 1200 g for 5 minutes, and then filtered through a […] filter to remove cell residue. […] Then, the concentration of each of growth factors VEGF, bFGF and TGF β-1 secreted in the culture medium was measured using a sandwich ELISA kit (Quantikine Human FGF basic Immunoassay, R&D systems).
To examine the concentrations of optimally diluted growth factors, the culture medium was serially diluted at the same concentration ratio with a calibration dilution in the kit, the concentration at the absorbance included in the range of the standard curve was determined, and the values included in the range of the standard curve were plotted as data. […] of each growth factor-containing culture media and standard solutions of growth factors was placed in each well coated with an antibody to each of the growth factors (Quantikine Human FGF basic Immunoassay, R&D systems) and was cultured at room temperature for 2 hours. After completion of the antigen-antibody binding reaction, each well was washed four times with wash buffer, and […] of a solution (Quantikine Human FGF basic Immunoassay, R&D systems), containing a secondary antibody to each of the growth factors, was placed in each well, followed by culture at room temperature for 2 hours. After completion of the second antibody binding reaction, each well was washed four times with wash buffer, […] of a color-developing reagent (tetramethylbenzidine, R&D systems) was added to each well, and then the absorbance of the medium was measured at 450 nm with an ELISA reader.
Adipose tissue-derived stem cells were cultured to passage 3 as described in Example (1-2), and when the cultured cells reached a confluence of 80%, the cells were collected with trypsin/EDTA. Then, the cells were accurately dispensed into a 6-well plate at a density of 25,000 cells/well. […]
Cells were cultured in this medium.
The cells were cultured in the above medium in a 5% carbon dioxide incubator at 37° C. for more than 48 hours, and then 200 μl of the culture medium supernatant was centrifuged at 3,000 rpm and filtered through 0.22-μm filter paper. Then, the concentrations of bFGF, VEGF and TGF β-1 in the filtrate were measured by the enzyme-linked immunosorbent assay (ELISA) of Example 2.
As a control group, a normal medium, was used, which was not subjected to physical stimulation or chemical stimulation. The increase in growth factors was compared between the control group and the culture medium subjected to physical stimulation and chemical stimulation.
In a culture process, cells were added to a serum-free medium prepared by adding a Ham's F-12 nutrient mixture to DMEM not containing a pH indicator such as phenol red, at a ratio of 1:1, and adding thereto 2 mM L-glutamine, 1 mM sodium pyruvate and 0.17% sodium bicarbonate. Then, the cells were cultured in a 5% carbon dioxide incubator at 37° C. for more than 48 hours. Then, 200 μl of the culture medium supernatant was centrifuged at 3,000 rpm, and then filtered through 0.22-μm filter paper. Then, the concentrations of bFGF, VEGF and TGF β-1 were measured by the enzyme-linked immunosorbent assay (ELISA) of Example 2.
The case where physical stimulation is used in combination with chemical stimulation will now be described.
For VEGF, a medium was irradiated with UV light and then subjected to scratch stimulation. […]
Background: ELISA stands for enzyme-linked immunosorbent assay.

Data set [3] has as its system adipose-derived stem cells.
Data set [4] deals with fibroblast cells. Description: Cell proliferation potential: stem cell culture medium vs recombinant growth factor-containing media. Type of data set: cell-based, human. The settings on record: 5000 cells/well seeded; rFGF 50 ng, rVEGF 500 ng in normal media; stem cell medium at 100%. The protocol: Stem cells isolated from adipose tissue were cultured to passage-3 as described in Example (1-2), and then 10^6 cells of the stem cells were seeded into a T175 flask (area: 175 cm^2; volume: 500 ml) and cultured for 3 days. The culture medium was collected, and added at a concentration of 100% to a 6-well plate in which passage-4 fibroblast cells from the skin tissue of a child were dispensed at a density of 5000 cells/well. For the control group, a medium containing the same concentrations of recombinant growth factors VEGF and bFGF (Santa Cruz.) expressed in E. coli was used. Cell proliferation potential was compared between the adipose-derived stem cell culture medium and the recombinant growth factor-containing culture medium using a cell viability measurement kit.

On to `CC1=C(/C=C/C(C)=C/C=C/C(C)=C/CO)C(C)(C)CCC1` [Retinol], for which the Defensive effect in data set [1] and in data set [1] (listed as retinol) was 54% throughout.

As to `Cc1cc2nc3c(=O)[nH]c(=O)nc-3n(C[C@H](O)[C@H](O)[C@H](O)CO)c2cc1C` [vitamin B, riboflavin], in data set [2], the “optimal concentration for synthesis of growth factors” value (shortened to “optimal concentration for synthesis”) is 50 to 100 µM; the “TGF β-1 expression / protein levels increased” value is 1.56 times; the “VEGF expression / protein levels increased” value was 1.68 times and 1.56 times; the “bFGF expression / protein levels increased” value turned out to be 1.33 times.

`O=C1O[C@H]([C@@H](O)CO)C(O)=C1O` [vitamin C]: in data set [2], the “optimal concentration for synthesis” value was in the range of 10 to 100 µM, the “TGF β-1 expression / protein levels increased” value is on record as 1.20 times, the “VEGF expression / protein levels increased” value came to 1.68 times and the “bFGF expression / protein levels increased” value amounted to 2.33 times. Also, the “cytotoxicity by MTT assay” value in data set [3] (at the optimal concentrations) is “no cytotoxicity occurred”.

With “rFGF: recombinant growth factor bFGF (Santa Cruz) expressed in E. coli”, the “cell proliferation potential, Cells” value in data set [4] was 8215.3 Cells.

Consider vitamin A, for which, in data set [2], the “optimal concentration for synthesis” value was 2 to 5 µM and 2 to 10 µM; the “TGF β-1 expression / protein levels increased” value was determined as 1.20 times; the “VEGF expression / protein levels increased” value was 1.59 times; the “bFGF expression / protein levels increased” value is 1.62 times. In addition, in data set [3], the “cytotoxicity by MTT assay” value was “no cytotoxicity occurred”.

Regarding vitamin D, in data set [2], the “optimal concentration for synthesis” value was in the range of 5 to 10 µM, the “TGF β-1 expression / protein levels increased” value was 1.16 times, the “VEGF expression / protein levels increased” value is 1.30 times and the “bFGF expression / protein levels increased” value came to 2.80 times.
